# In US5980913A, “Peptides having immunomodulatory activity” (Biochem Pharma, Inc., priority 1994, dated 1999):
# Where a SMILES comes first, the peptide text is derived from it. [ ]: non-standard residue; d: D form.
# Key:
# [1] = Toxicity in vivo
# From the text: peptide #1 (SEQ. ID NO:1) appears to be non-toxic.
# [2] = Stability in Human Whole Blood at 37° C., HPLC; assay type: in vitro ADME; parameters: half-life: dose or concentration left out as unconfirmed; conditions: for HPLC AREA: human whole blood 37° C.
# Procedure: The procedures are the same as example 5 with the exceptions that human whole blood was substituted for rat whole blood, and that in Step 2, (blood incubation) aliquotes were taken at the following times: […]
# [3] = tested on: B cells; experiment: Activation of B cells by mitogenic proliferation (LPS, PWM); assay type: cell-based, C57BL/6 mice; conditions: concentration not given; 0 not defined
# From the text: c) Activation of T or B cells by Mitogenic Proliferation
# A mitogenic lectin (mitogen) is a glycoprotein which binds and cross-links specific cells surface carbohydrate determinants, and will polyclonally stimulate lymphoid cells. Lymphocyte activation by either antigens or mitogens results in intracellular changes and the subsequent development into a lymphoblast. Mitogenic stimulation of lymphocytes in vitro is believed to mimic the series of events which occur in vivo following their stimulation by specific antigens. PHA and ConA; PWM and LPS mitogens can be used as a measurement of T cell and B cell activity, respectively. Briefly, the spleen mononuclear leukocytes from C57BL/6 mice are incubated in the presence or absence of mitogens with or without candidate drugs. After 72 hours or 5 days, ^3 H-thymidine incorporation is recorded as an indication of cell proliferation.
# Lymphocytes were isolated from mice spleen or human blood in accordance to methods well known in the art. 100 μl of cell suspension of 2×10^6 cells/ml was added per well (2x10^5 cells/well) and incubated in the presence of lectin at the following concentrations:
# PWM=0.2 to 0.02% final concentration
# Cells were incubated for 3 days with PHA or ConA, or 5 days with PWM or LPS. 1 μCi of tritiated thymidine was added to each well for the last 6 hours (or 0.5 μCi for 18 hrs). The cells were harvested in a cell Harvester (Tortech®) and counted in a Beta counter.
# [4] = tested on: blood cell subsets (cell surface antigens); experiment: In vivo/ex vivo immunophenotyping in the blood, mice treated 4 consecutive days, blood taken on day 5; parameters: species or system C57BL/6 mice
# Procedure: C57BL.backslash.6 mice are treated with 0, 50, 100, 200, and 300 mg/kg of drug (in saline) for 4 consecutive days. Blood is taken by cardiac puncture on day 5, and the lymphocytes are isolated from spleen in the following manner:
# 1. Immunophenotyping (blood and spleen)
# Cell immunophenotyping is performed on blood and spleen. The following cell surface antigens are analyzed:
# CD4 (T helper/inducer, binds class II-restricted T cells);
# CD8 (cytotoxic T cells, CTL adhesion);
# MAC-1 (monocyte/macrophage);
# NK (natural killer cells);
# CD45 (all leukocytes, protein tyrosine phosphatase).
compound,measurement,setting,value
"NCCCC[C@@H](N)C(=O)N[C@@H](CC(N)=O)C(=O)N1CCC[C@H]1C(=O)N[C@@H](Cc1ccc(O)cc1)C(=O)O [PEPTIDE #5, H-(D-Lys)-Asn-Pro-Tyr-OH] (H-[dK]NPY-OH)",gross pathological observations (in words),[1]; in vivo,no sign of irritation
same,toxic effect (in words),[1]; up to 200 mg/kg,No toxic effect
same,HPLC AREA,[2]; 0 min,2857082.5
same,HPLC AREA,[2]; 15 min,3066465
same,HPLC AREA,[2]; 30 min,3017509.5
same,HPLC AREA,[2]; 60 min,3135696.5
same,HPLC AREA,[2]; 90 min,3005211
same,HPLC AREA,[2]; 120 min,3476665.5
same,HPLC AREA,[2]; 150 min,3063052
same,HPLC AREA,[2]; 180 min,3108157
same,HPLC AREA,[2]; 210 min,3181899
same,half-life,"[2]; human, human whole blood, 37° C.",> 3.5 h
same,"Activation of B Cells, LPS",[3],0
same,"Activation of B Cells, PWM",[3],0
same,"change of relative percentage of T cells (TCR, CD4+ and CD8+ cell surface antigen) (in words)",[4],reduced in a significant manner
same,"CD4+ CD8+ cell subset, relative percentage, MEAN","[4]; 50 mg/kg, first assay",2.03
same,"CD4+ CD8- cell subset, relative percentage, MEAN","[4]; 50 mg/kg, first assay",18.15
same,"CD4+ CD11b+ cell subset, relative percentage, MEAN","[4]; 50 mg/kg, first assay",1.18
same,"CD4+ CD11b- cell subset, relative percentage, MEAN","[4]; 50 mg/kg, first assay",22.55
same,"CD4- CD8+ cell subset, relative percentage, MEAN","[4]; 50 mg/kg, first assay",5.15
same,"CD4- CD8- cell subset, relative percentage, MEAN","[4]; 50 mg/kg, first assay",74.68
same,"CD4- CD11b+ cell subset, relative percentage, MEAN","[4]; 50 mg/kg, first assay",12.08
same,"CD4- CD11b- cell subset, relative percentage, MEAN","[4]; 50 mg/kg, first assay",64.15
same,"CD45+ CD4+ cell subset, relative percentage, MEAN","[4]; 50 mg/kg, first assay",17.00
same,"CD45+ CD4- cell subset, relative percentage, MEAN","[4]; 50 mg/kg, first assay",57.68
same,"CD45+ CD8+ cell subset, relative percentage, MEAN","[4]; 50 mg/kg, first assay",6.53
same,"CD45+ CD8- cell subset, relative percentage, MEAN","[4]; 50 mg/kg, first assay",62.48
same,"CD45- CD4+ cell subset, relative percentage, MEAN","[4]; 50 mg/kg, first assay",3.15
same,"CD45- CD4- cell subset, relative percentage, MEAN","[4]; 50 mg/kg, first assay",22.15
same,"CD45- CD8- cell subset, relative percentage, MEAN","[4]; 50 mg/kg, first assay",30.35
same,"CD45- CDE8+ cell subset, relative percentage, MEAN","[4]; 50 mg/kg, first assay",0.68
same,"Ly5(B) cell subset, relative percentage, MEAN","[4]; 50 mg/kg, first assay",57.88
same,"NK+ CD3+ cell subset, relative percentage, MEAN","[4]; 50 mg/kg, first assay",2.13
same,"NK+ CD3- cell subset, relative percentage, MEAN","[4]; 50 mg/kg, first assay",5.70
same,"NK- CD3+ cell subset, relative percentage, MEAN","[4]; 50 mg/kg, first assay",33.30
same,"NK- CD3- cell subset, relative percentage, MEAN","[4]; 50 mg/kg, first assay",58.93
same,"TCR(T) cell subset, relative percentage, MEAN","[4]; 50 mg/kg, first assay",31.53
same,"CD4+ CD8+ cell subset, relative percentage, MEAN","[4]; 50 mg/kg, second assay",0.43
same,"CD4+ CD8- cell subset, relative percentage, MEAN","[4]; 50 mg/kg, second assay",20.65
same,"CD4+ CD11b+ cell subset, relative percentage, MEAN","[4]; 50 mg/kg, second assay",0.13
same,"CD4+ CD11b- cell subset, relative percentage, MEAN","[4]; 50 mg/kg, second assay",15.38
same,"CD4- CD8+ cell subset, relative percentage, MEAN","[4]; 50 mg/kg, second assay",7.70
same,"CD4- CD8- cell subset, relative percentage, MEAN","[4]; 50 mg/kg, second assay",71.20
same,"CD4- CD11b+ cell subset, relative percentage, MEAN","[4]; 50 mg/kg, second assay",6.73
same,"CD4- CD11b- cell subset, relative percentage, MEAN","[4]; 50 mg/kg, second assay",77.78
same,"CD45+ CD4+ cell subset, relative percentage, MEAN","[4]; 50 mg/kg, second assay",18.48
same,"CD45+ CD4- cell subset, relative percentage, MEAN","[4]; 50 mg/kg, second assay",68.23
same,"CD45+ CD8+ cell subset, relative percentage, MEAN","[4]; 50 mg/kg, second assay",8.10
same,"CD45+ CD8- cell subset, relative percentage, MEAN","[4]; 50 mg/kg, second assay",79.70
same,"CD45- CD4+ cell subset, relative percentage, MEAN","[4]; 50 mg/kg, second assay",2.25
same,"CD45- CD4- cell subset, relative percentage, MEAN","[4]; 50 mg/kg, second assay",11.05
same,"CD45- CD8+ cell subset, relative percentage, MEAN","[4]; 50 mg/kg, second assay",0.03
same,"CD45- CD8- cell subset, relative percentage, MEAN","[4]; 50 mg/kg, second assay",12.15
same,"Ly5(B) cell subset, relative percentage, MEAN","[4]; 50 mg/kg, second assay",58.6
same,"NK+ CD3+ cell subset, relative percentage, MEAN","[4]; 50 mg/kg, second assay",3.00
same,"NK+ CD3- cell subset, relative percentage, MEAN","[4]; 50 mg/kg, second assay",7.88
same,"NK- CD3+ cell subset, relative percentage, MEAN","[4]; 50 mg/kg, second assay",31.05
same,"NK- CD3- cell subset, relative percentage, MEAN","[4]; 50 mg/kg, second assay",58.10
same,"TCR(T) cell subset, relative percentage, MEAN","[4]; 50 mg/kg, second assay",35.73
same,"CD4+ CD8+ cell subset, relative percentage, MEAN","[4]; 100 mg/kg, first assay",2.10
same,"CD4+ CD8- cell subset, relative percentage, MEAN","[4]; 100 mg/kg, first assay",17.90
same,"CD4+ CD11b+ cell subset, relative percentage, MEAN","[4]; 100 mg/kg, first assay",1.10
same,"CD4+ CD11b- cell subset, relative percentage, MEAN","[4]; 100 mg/kg, first assay",20.30
same,"CD4- CD8+ cell subset, relative percentage, MEAN","[4]; 100 mg/kg, first assay",6.03
same,"CD4- CD8- cell subset, relative percentage, MEAN","[4]; 100 mg/kg, first assay",73.95
same,"CD4- CD11b+ cell subset, relative percentage, MEAN","[4]; 100 mg/kg, first assay",11.03
same,"CD4- CD11b- cell subset, relative percentage, MEAN","[4]; 100 mg/kg, first assay",67.65
same,"CD45+ CD4+ cell subset, relative percentage, MEAN","[4]; 100 mg/kg, first assay",16.78
same,"CD45+ CD4- cell subset, relative percentage, MEAN","[4]; 100 mg/kg, first assay",58.75
same,"CD45+ CD8+ cell subset, relative percentage, MEAN","[4]; 100 mg/kg, first assay",7.10
same,"CD45+ CD8- cell subset, relative percentage, MEAN","[4]; 100 mg/kg, first assay",63.45
same,"CD45- CD4+ cell subset, relative percentage, MEAN","[4]; 100 mg/kg, first assay",3.25
same,"CD45- CD4- cell subset, relative percentage, MEAN","[4]; 100 mg/kg, first assay",21.23
same,"CD45- CD8- cell subset, relative percentage, MEAN","[4]; 100 mg/kg, first assay",28.38
same,"CD45- CDE8+ cell subset, relative percentage, MEAN","[4]; 100 mg/kg, first assay",1.03
